# Test results: US11246893B2, “Bacteriocin production, compositions and methods of use” (ISOThrive Inc., priority 2016, dated 2022)
# Key:
# [1] = test system: Weissella viridescens NRRL B-1951; assay: tube assay, W. viridescens growth with nisin A or Z (absorbance); format: cell-based
# Procedure: 100 g De-Man, Rogosa and Sharpe (MRS) media was prepared in a 500 mL Erlenmeyer to contain 5.5% solids in deionized water (18.2 MΩ, Hydro Service and Supplies. Gaithersburg, Md.). The media was autoclaved (121° C. 15 min), cooled, and inoculated with 1 mL (0.5 mL culture+0.5 mL glycerol, 40%; frozen at −78° C.) of Weissella viridescens NRRL B-1951 (test strain). The culture was incubated at 31° C. overnight (15 Hr).
# The next day, stock solutions of either nisin A or Z were prepared in deionized water to contain 31.3 and 33.7 μg/g of each peptide.
# 100 g MRS media was prepared to contain 5.5% solids. Two sets (one set each for nisin A and nisin Z) of eight Hach-type tubes (Kimble Chase 45066-16100) were prepared. Within each set, in order was added 5.00, 4.95, 4.90, 4.75, 4.50, 4.00, 3.50 and 3.00 g MRS media. The tubes were sealed and autoclaved.
# To each tube was added, of the appropriate nisin stock, 0.00, 0.05, 0.10, 0.25, 0.50, 1.00, 1.50, and 2.00 g. Each tube was inoculated with 0.25 g of late-log W. viridescens NRRL B-1951 culture. The tubes were sealed and the absorbance at 600 nm was quickly measured (Hach DR900). The tubes were segregated by set and incubated at 31° C. overnight (15 Hr).
# Each tube was thoroughly mixed to suspend settled cells and the absorbance was measured again at 600 nm. The final absorbance values for each sample were corrected for their respective background (taken just after inoculation, scattered light from added cells). The corrected absorption values were a measure of W. viridescens growth.
# As indicated above, the absorbance of the culture was measured again at 600 nm as a measure of W. viridescens growth, and the absorbance values for each sample were corrected for their respective background. These corrected absorption values plotted against nisin concentration and minimum inhibiting concentration approximated via regression.
# The results were fit via four parameter logistic regression (4PLR), combined into a continuous function with a second assay set (0.65-9.99 μg/g), and are shown in FIG. 11A.
# [2] = test system: Weissella viridescens NRRL B-1951; assay: HPLC of tube supernatants: glucose consumption and organic acid production; format: cell-based; conditions: for acetic acid in fermentation media: MRS media originally contained 7% acetate
# Procedure: Each tube was sampled (1.5 mL conical polypropylene centrifuge tubes) and centrifuged at 10 kRPM for 10 minutes to remove and suspended cells. The resulting supernatants were filtered (0.2 μm nylon), diluted to 0.5% solids, and analyzed by high pressure liquid chromatography (HPLC, Agilent 1100, refractive index detector and BioRad Ainex HPX-87H column) for consumption of glucose and production of organic acids.
# Note that the MRS media originally contained 7% acetate; therefore 7% should be subtracted from the values for acetate in Table 8 to ascertain the amount of acetate generated during the assay.
# [3] = precipitation noted in proliferation assay (FIG. 9E); format: physicochemical
# Procedure: As illustrated, nisins can have some uncommon amino acids such as lanthionine (Lan), methyllanthionine (MeLan), didehydroalanine (Dha), and didehydroaminobutyric acid (Dhb). FIG. 9E graphically illustrates inhibition of HCT-15 and DLD-1 colorectal cancer cell proliferation and IC50 values obtained for nisins A and Z. The plot is representative of four triplicate tests including two each for HCT-15 and DLD-1 cells. Note that Nisin A began to precipitate at concentrations >400 μg/mL.
# [4] = tube A2, nisin A 0.33 μg/g, 15 Hr
# [5] = tube A3, nisin A 0.68 μg/g, 15 Hr
# [6] = tube A4, nisin A 1.38 μg/g, 15 Hr
# [7] = tube A5, nisin A 3.08 μg/g, 15 Hr
# [8] = tube A6, nisin A 5.97 μg/g, 15 Hr
# [9] = tube A7, nisin A 8.86 μg/g, 15 Hr
# [10] = tube A8, nisin A 11.87 μg/g, 15 Hr
sequence,measurement,setting,value
MSTKDFNLDLVSVSKKDSGASPRITSISLCTPGCKTGALMGCNMKTATCHCSIHVSK [nisin A],"MIC, separate experiment",[1],about 2.5 μg/g
same,minimal inhibitory concentration estimated from graphs,"[1]; 15 Hr, 31° C.",5 to 7 µg/g
same,91516 ABS 610f,[1]; [4],1.568
same,Corrected ABS 610rs,[1]; [4],1.106
same,91516 ABS 610f,[1]; [5],1.531
same,Corrected ABS 610rs,[1]; [5],1.063
same,91516 ABS 610f,[1]; [6],1.334
same,Corrected ABS 610rs,[1]; [6],0.868
same,91516 ABS 610f,[1]; [7],0.911
same,Corrected ABS 610rs,[1]; [7],0.473
same,91516 ABS 610f,[1]; [8],0.536
same,Corrected ABS 610rs,[1]; [8],0.116
same,91516 ABS 610f,[1]; [9],0.403
same,Corrected ABS 610rs,[1]; [9],0.001
same,91516 ABS 610f,[1]; [10],0.361
same,Corrected ABS 610rs,[1]; [10],0.001
same,Maltotriose in fermentation media,"[2]; tube A2, nisin A 0.33 μg/g",0.312 %/brix
same,ethanol in fermentation media,"[2]; tube A2, nisin A 0.33 μg/g",0.068 %/brix
same,formic acid in fermentation media,"[2]; tube A2, nisin A 0.33 μg/g",0.263 %/brix
same,fructose in fermentation media,"[2]; tube A2, nisin A 0.33 μg/g",0.000 %/brix
same,glucose in fermentation media,"[2]; tube A2, nisin A 0.33 μg/g",23.122 %/brix
same,glycerol in fermentation media,"[2]; tube A2, nisin A 0.33 μg/g",0.292 %/brix
same,lactic acid in fermentation media,"[2]; tube A2, nisin A 0.33 μg/g",6.884 %/brix
same,maltose in fermentation media,"[2]; tube A2, nisin A 0.33 μg/g",0.581 %/brix
same,acetic acid in fermentation media,"[2]; tube A2, nisin A 0.33 μg/g",7.967 %/brix
same,Maltotriose in fermentation media,"[2]; tube A4, nisin A 1.38 μg/g",0.298 %/brix
same,ethanol in fermentation media,"[2]; tube A4, nisin A 1.38 μg/g",0.062 %/brix
same,formic acid in fermentation media,"[2]; tube A4, nisin A 1.38 μg/g",0.282 %/brix
same,fructose in fermentation media,"[2]; tube A4, nisin A 1.38 μg/g",0.000 %/brix
same,glucose in fermentation media,"[2]; tube A4, nisin A 1.38 μg/g",24.138 %/brix
same,glycerol in fermentation media,"[2]; tube A4, nisin A 1.38 μg/g",0.319 %/brix
same,lactic acid in fermentation media,"[2]; tube A4, nisin A 1.38 μg/g",5.496 %/brix
same,maltose in fermentation media,"[2]; tube A4, nisin A 1.38 μg/g",0.815 %/brix
same,acetic acid in fermentation media,"[2]; tube A4, nisin A 1.38 μg/g",8.219 %/brix
same,Maltotriose in fermentation media,"[2]; tube A5, nisin A 3.08 μg/g",0.276 %/brix
same,ethanol in fermentation media,"[2]; tube A5, nisin A 3.08 μg/g",0.094 %/brix
same,formic acid in fermentation media,"[2]; tube A5, nisin A 3.08 μg/g",0.407 %/brix
same,fructose in fermentation media,"[2]; tube A5, nisin A 3.08 μg/g",0.000 %/brix
same,glucose in fermentation media,"[2]; tube A5, nisin A 3.08 μg/g",24.698 %/brix
same,glycerol in fermentation media,"[2]; tube A5, nisin A 3.08 μg/g",0.350 %/brix
same,lactic acid in fermentation media,"[2]; tube A5, nisin A 3.08 μg/g",4.672 %/brix
same,maltose in fermentation media,"[2]; tube A5, nisin A 3.08 μg/g",0.598 %/brix
same,acetic acid in fermentation media,"[2]; tube A5, nisin A 3.08 μg/g",8.296 %/brix
same,Maltotriose in fermentation media,"[2]; tube A6, nisin A 5.97 μg/g",0.288 %/brix
same,ethanol in fermentation media,"[2]; tube A6, nisin A 5.97 μg/g",0.057 %/brix
same,formic acid in fermentation media,"[2]; tube A6, nisin A 5.97 μg/g",0.280 %/brix
same,fructose in fermentation media,"[2]; tube A6, nisin A 5.97 μg/g",0.000 %/brix
same,glucose in fermentation media,"[2]; tube A6, nisin A 5.97 μg/g",25.304 %/brix
same,glycerol in fermentation media,"[2]; tube A6, nisin A 5.97 μg/g",0.328 %/brix
same,lactic acid in fermentation media,"[2]; tube A6, nisin A 5.97 μg/g",2.707 %/brix
same,maltose in fermentation media,"[2]; tube A6, nisin A 5.97 μg/g",0.941 %/brix
same,acetic acid in fermentation media,"[2]; tube A6, nisin A 5.97 μg/g",8.143 %/brix
same,Maltotriose in fermentation media,"[2]; tube A7, nisin A 8.86 μg/g",0.419 %/brix
same,ethanol in fermentation media,"[2]; tube A7, nisin A 8.86 μg/g",0.055 %/brix
same,formic acid in fermentation media,"[2]; tube A7, nisin A 8.86 μg/g",0.234 %/brix
same,fructose in fermentation media,"[2]; tube A7, nisin A 8.86 μg/g",0.000 %/brix
same,glucose in fermentation media,"[2]; tube A7, nisin A 8.86 μg/g",25.444 %/brix
same,glycerol in fermentation media,"[2]; tube A7, nisin A 8.86 μg/g",0.299 %/brix
same,lactic acid in fermentation media,"[2]; tube A7, nisin A 8.86 μg/g",1.521 %/brix
same,maltose in fermentation media,"[2]; tube A7, nisin A 8.86 μg/g",0.775 %/brix
same,acetic acid in fermentation media,"[2]; tube A7, nisin A 8.86 μg/g",7.899 %/brix
same,Maltotriose in fermentation media,"[2]; tube A8, nisin A 11.87 μg/g",0.305 %/brix
same,ethanol in fermentation media,"[2]; tube A8, nisin A 11.87 μg/g",0.071 %/brix
same,formic acid in fermentation media,"[2]; tube A8, nisin A 11.87 μg/g",0.233 %/brix
same,fructose in fermentation media,"[2]; tube A8, nisin A 11.87 μg/g",0.000 %/brix
same,glucose in fermentation media,"[2]; tube A8, nisin A 11.87 μg/g",25.537 %/brix
same,glycerol in fermentation media,"[2]; tube A8, nisin A 11.87 μg/g",0.301 %/brix
same,lactic acid in fermentation media,"[2]; tube A8, nisin A 11.87 μg/g",1.579 %/brix
same,maltose in fermentation media,"[2]; tube A8, nisin A 11.87 μg/g",0.739 %/brix
same,acetic acid in fermentation media,"[2]; tube A8, nisin A 11.87 μg/g",8.091 %/brix
same,concentration at which precipitation began,[3],> 400 µg/mL
